Reference: ChEMBL document CHEMBL1201862, “PubChem BioAssay data set” (2004)
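Following 48 hours of exposure in 96-well plates, responses at five concentrations were used to interpolate endpoints linearly. Abbreviation: GI50, concentration required for 50% inhibition of growth.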 The source made the active and inactive calls. No stated cut-off is given here; in the data, active = GI50 up to about 1.1 µM and inactive = higher.

Tests used:
Assay in all cases: NCI anticancer screen, dose series, 48 h
SNB-19 = test system: SNB-19
786-0 = test system: 786-0
NCI-H23 = test system: NCI-H23
SN12C = test system: SN12C
NCI-H522 = test system: NCI-H522
CAKI-1 = test system: CAKI-1
DU-145 = test system: DU-145
U-251 = test system: U-251
KM12 = test system: KM12
ACHN = test system: ACHN
MDA-MB-231 = test system: MDA-MB-231
CCRF-CEM = test system: CCRF-CEM
EKVX = test system: EKVX
HCT-15 = test system: HCT-15
PC-3 = test system: PC-3
RXF 393 = test system: RXF 393
RPMI-8226 = test system: RPMI-8226
A498 = test system: A498
SF-268 = test system: SF-268
NCI-H460 = test system: NCI-H460

Row | SMILES | GI50 (SNB-19) | GI50 (786-0) | GI50 (NCI-H23) | GI50 (SN12C) | GI50 (NCI-H522) | GI50 (CAKI-1) | GI50 (DU-145) | GI50 (U-251) | GI50 (KM12) | GI50 (ACHN) | GI50 (MDA-MB-231) | GI50 (CCRF-CEM) | GI50 (EKVX) | GI50 (HCT-15) | GI50 (PC-3) | GI50 (RXF 393) | GI50 (RPMI-8226) | GI50 (A498) | GI50 (SF-268) | GI50 (NCI-H460)
1 | Nc1ccccc1C(=O)NNC(=O)c1ccccc1N | > 100 µM (inactive) | > 100 µM (inactive) | > 100 µM (inactive) | > 100 µM (inactive) | > 100 µM (inactive) | > 100 µM (inactive) | > 100 µM (inactive) | > 100 µM (inactive) | > 100 µM (inactive) | > 100 µM (inactive) | > 100 µM (inactive) | > 100 µM (inactive) | > 100 µM (inactive) | > 100 µM | > 100 µM (inactive) | > 100 µM (inactive) | > 100 µM (inactive) | > 100 µM (inactive) | – | –
2 | CC(=O)ON(C(C)=O)c1ccc(-c2nc3ccccc3s2)cc1 | 34.7 µM (inactive) | 30.2 µM (inactive) | 26 µM (inactive) | 40.7 µM (inactive) | 15.1 µM (inactive) | – | 26.2 µM (inactive) | 24.2 µM (inactive) | 15.1 µM (inactive) | 19.4 µM (inactive) | 25 µM (inactive) | 7.35 µM (inactive) | 13.1 µM (inactive) | 24.4 µM | 50.6 µM (inactive) | 35.3 µM (inactive) | 18.3 µM (inactive) | 0.315 µM (active) | 24.7 µM (inactive) | 28.4 µM (inactive)
3 | COc1c(C=O)c2c(c(OC)c1OC)-c1ccc(OC)c(=O)cc1[C@@H](NC(C)=O)CC2 | 0.144 µM (active) | 0.132 µM (active) | 0.034 µM (active) | 0.0824 µM (active) | 0.0123 µM (active) | 0.703 µM (active) | 0.415 µM (active) | 0.0367 µM (active) | 0.0134 µM (active) | 1.17 µM (inactive) | 0.352 µM (active) | < 0.0128 µM (active) | 47.9 µM (inactive) | 0.849 µM | 0.0375 µM (active) | 0.148 µM (active) | < 0.01 µM (active) | 0.347 µM (active) | 0.0444 µM (active) | 0.0771 µM (active)
4 | C=C1C(=O)OC2/C=C(\C)C(=O)CC3OC(C)(C)OC3(C)CC(OC(=O)/C(C)=C/C)C12 (centres undefined) | > 80.9 µM (inactive) | 7.66 µM (inactive) | 20.2 µM (inactive) | 20.7 µM (inactive) | 2.99 µM (inactive) | 3.51 µM (inactive) | 19.4 µM (inactive) | 27.5 µM (inactive) | 17.9 µM (inactive) | 3.68 µM (inactive) | 23.6 µM (inactive) | 0.897 µM (active) | 14.2 µM (inactive) | 4.49 µM | 25.8 µM (inactive) | 12 µM (inactive) | 3.66 µM (inactive) | 21.9 µM (inactive) | 12.6 µM (inactive) | 17.1 µM (inactive)
5 | Cc1nc(-[n+]2nc(-c3ccncc3)nn2-c2ccccc2)sc1C | 35.9 µM (inactive) | 19.1 µM (inactive) | 57.9 µM (inactive) | 49.4 µM (inactive) | 3.15 µM (inactive) | 19.1 µM (inactive) | 36.2 µM (inactive) | 29.4 µM (inactive) | 36.9 µM (inactive) | 4.8 µM (inactive) | 32.1 µM (inactive) | 17.5 µM (inactive) | 27.2 µM (inactive) | 16.4 µM | 15.5 µM (inactive) | 18.7 µM (inactive) | 68.1 µM (inactive) | 92.7 µM (inactive) | 21.4 µM (inactive) | –
6 | CCc1cccc(CC)c1NC(=S)NC(=O)c1ccc(Br)cc1 | 40.9 µM (inactive) | 30.1 µM (inactive) | 29.6 µM (inactive) | 32.6 µM (inactive) | 17.6 µM (inactive) | 29.6 µM (inactive) | 75.7 µM (inactive) | 40.1 µM (inactive) | 33.8 µM (inactive) | 32.4 µM (inactive) | 29 µM (inactive) | 17.7 µM (inactive) | 23.6 µM (inactive) | 33.7 µM | 24.3 µM (inactive) | 19.1 µM (inactive) | 33.1 µM (inactive) | 33.6 µM (inactive) | 45 µM (inactive) | 17.7 µM (inactive)
7 | CCOC(=O)c1ccc(NC(NC(=O)CC)(C(F)(F)F)C(F)(F)F)cc1 | > 100 µM (inactive) | > 100 µM (inactive) | > 100 µM (inactive) | – | > 100 µM (inactive) | > 100 µM (inactive) | > 100 µM (inactive) | > 100 µM (inactive) | 59.6 µM (inactive) | 55 µM (inactive) | > 100 µM (inactive) | > 100 µM (inactive) | > 100 µM (inactive) | 97.1 µM | 60.3 µM (inactive) | > 100 µM (inactive) | > 100 µM (inactive) | > 100 µM (inactive) | > 100 µM (inactive) | > 100 µM (inactive)
8 | O=C1C[C@H]2[C@@H](O1)[C@@H](O)CN1C(=O)c3ccccc3[C@H]21 | > 100 µM (inactive) | > 100 µM (inactive) | > 100 µM (inactive) | > 100 µM (inactive) | > 100 µM (inactive) | > 100 µM (inactive) | > 100 µM (inactive) | > 100 µM (inactive) | > 100 µM (inactive) | > 100 µM (inactive) | > 100 µM (inactive) | > 100 µM (inactive) | > 100 µM (inactive) | > 100 µM | > 100 µM (inactive) | > 100 µM (inactive) | > 100 µM (inactive) | > 100 µM (inactive) | > 100 µM (inactive) | > 100 µM (inactive)
9 | N=c1oc2ccccc2cc1C(=O)Nc1nccs1 | 52.2 µM (inactive) | 2.37 µM (inactive) | 35.8 µM (inactive) | 46.9 µM (inactive) | 0.647 µM (active) | 13.4 µM (inactive) | 20.9 µM (inactive) | 33 µM (inactive) | 34.3 µM (inactive) | 4.54 µM (inactive) | 33.7 µM (inactive) | 2.79 µM (inactive) | 25.1 µM (inactive) | 24.8 µM | 34.5 µM (inactive) | 17.5 µM (inactive) | 14.1 µM (inactive) | 45.7 µM (inactive) | 47.3 µM (inactive) | 26.7 µM (inactive)
10 | CC(CN(C)C)C(O)(c1ccccc1)c1ccccc1 (centres undefined) | > 100 µM (inactive) | > 100 µM (inactive) | > 100 µM (inactive) | > 100 µM (inactive) | > 100 µM (inactive) | > 100 µM (inactive) | > 100 µM (inactive) | > 100 µM (inactive) | > 100 µM (inactive) | > 100 µM (inactive) | > 100 µM (inactive) | > 100 µM (inactive) | > 100 µM (inactive) | > 100 µM | > 100 µM (inactive) | > 100 µM (inactive) | > 100 µM (inactive) | > 100 µM (inactive) | > 100 µM (inactive) | > 100 µM (inactive)
11 | N#CC(C#N)=C(N)/C(C#N)=C/c1ccc(O)c(O)c1 | > 92.5 µM (inactive) | > 91.8 µM (inactive) | > 100 µM (inactive) | – | > 61.2 µM (inactive) | > 100 µM (inactive) | > 100 µM (inactive) | > 89.5 µM (inactive) | 69.5 µM (inactive) | > 85.7 µM (inactive) | > 100 µM (inactive) | 19.8 µM (inactive) | > 70.3 µM (inactive) | 44.5 µM | 37.7 µM (inactive) | > 100 µM (inactive) | 71.3 µM (inactive) | > 100 µM (inactive) | > 83.2 µM (inactive) | 50.5 µM (inactive)
